Patent publication US9434760B2, “Prolinamide derivatives as thrombin inhibitors, preparation method and application thereof” (SHANGHAI INSTITUTE OF PHARMACEUTICAL INDUSTRY, priority 2010, dated 2016)
Counter-ions that a name gives are not always drawn. Like-named read-outs stand apart in the source and are kept apart here.

Target: T1, lyophilized bovine thrombin standard substance purified from bovine blood (Bos taurus, UniProt P00735)
T1 construct: lyophilized bovine thrombin standard substance purified from bovine blood; from tissue; host or cells: bovine blood
Assay: Test for antithrombin activity (chromogenic substrate S2238)
Assay type: biochemical
Text: Wherein ΔAs represents the rate of change in inhibited absorbance value, and ΔAc represents the rate of change in uninhibited absorbance values.
Wherein h represents Hill coefficient.

[1] = 0.15 U/ml bovine thrombin, incubation for 15 minutes, substrate S2238 (0.075 μM), absorbance at 405 nm during 4 minutes, room temperature, read-out: IC50

Row | Molecule | IC50 [1] [nM] | IC50 [nM]
1 | CC(C)C[C@@H](NS(=O)(=O)c1ccccc1)C(=O)N1CCC[C@H]1C(=O)NCc1ccc(C(=N)NC(=O)OCc2ccccc2)cc1 [Example 18] | 30 | –
2 | CC(C)CC(NS(=O)(=O)c1ccccc1)C(=O)N1CCC[C@H]1C(=O)NCc1ccc(C(=N)N)cc1 (stereo partly drawn) [Example 2, N-benzenesulfonyl-D,L-leucyl-L-prolyl-[(4-amidinophenyl)methyl]amide acetate] | – | 115
3 | CC(C)CC(NC(=O)c1ccccc1)C(=O)N1CCC[C@H]1C(=O)NCc1ccc(C(=N)N)cc1 (mixture of isomers) [Example 6, N-benzoyl-D,L-leucyl-L-prolyl-[(4-amidinophenyl)methyl]amide acetate] | 154 | –
4 | N-benzylsulfonyl-D,L-leucyl-L-prolyl-{[4-(N′-hydroxyl) amidinophenyl]methyl}amide acetate [Example 4] | 47 | –
5 | N-benzenesulfonyl-D-leucyl-L-prolyl-[1-(aminoiminomethyl)-pyrrol-3-yl]methyl amide hydrochloride [Example 27] | 8 | –
6 | CC[C@H](C)[C@H](NC(=O)c1ccccc1)C(=O)N1CCC[C@H]1C(=O)NCc1ccc(C(=N)N)cc1 (mixture of isomers) [Example 12, N-benzoyl-D,L-isoleucyl-L-prolyl-[(4-amidinophenyl)methyl]amide acetate] | 561 | –
7 | CC(C)C[C@@H](NS(=O)(=O)c1ccccc1)C(=O)N1CCC[C@H]1C(=O)NCc1ccc(C(=N)N)cc1 [Example 19, N-benzenesulfony-D-leucyl-L-prolyl-[(4-amidinophenyl)methyl]amide hydrochloride] | 12 | –

The next lines start with the values.

Row | IC50 [1] [nM] | IC50 [nM] | Molecule
8 | 246 | – | CC(C)C[C@@H](NS(=O)(=O)Cc1ccccc1)C(=O)N1CCC[C@H]1C(=O)NCc1ccc(C(=N)NC(=O)OCc2ccccc2)cc1 [Example 20]
9 | – | 69 | N=C(N)c1ccc(CNC(=O)[C@@H]2CCN2C(=O)[C@H](NCC(=O)O)C2CCCCC2)cc1 [melagatran, reference compound]
10 | – | 170 | CC(C)C[C@@H](NS(=O)(=O)Cc1ccccc1)C(=O)N1CCC[C@H]1C(=O)NCc1ccc(C(=N)N)cc1 [Example 21, N-benzylsulfony-D-leucyl-L-prolyl-[(4-amidinophenyl)methyl]amide hydrochloride]
11 | 472 | – | CC(C)C[C@@H](NC(=O)Cc1ccccc1)C(=O)N1CCC[C@H]1C(=O)NCc1ccc(C(=N)N)cc1 [Example 23, N-phenylacetyl-D-leucyl-L-prolyl-[(4-amidinophenyl)methyl]amide hydrochloride]
12 | 561 | – | CC(C)C[C@@H](NCC(=O)O)C(=O)N1CCC[C@H]1C(=O)NCc1ccc(C(=N)N)cc1 [Example 24, N-carboxylmethyl-D-leucyl-L-prolyl-[(4-amidinophenyl)methyl]amide hydrochloride]
13 | 55 | – | CC(C)C[C@@H](NC(=O)c1ccccc1)C(=O)N1CCC[C@H]1C(=O)NCc1ccc(C(=N)N)cc1 [Example 22, N-benzoyl-D-leucyl-L-prolyl-[(4-amidinophenyl)methyl]amide hydrochloride]
